Values quoted from earlier work as cited in patent publication US20070196465A1, “Treatment with dihydropyridine calcium channel blockers and omega-3 fatty acids and a combination product thereof” (priority 2005, published 2007).

What was measured:
heart = conditions: Finkel et al. 1992
L-type Ca^2+ channel = conditions: dihydropyridine alone
cells = conditions: dihydropyridine alone

COC(=O)C1=C(C)NC(C)=C([N+](=O)[O-])C1c1ccccc1C(F)(F)F (stereo not shown) [Bay K 8644]
inotropic effect (heart): concentration-dependent positive inotrope | effect on peak L-type Ca2+ channel current, cytosolic Ca2+ and cell contraction (L-type Ca^2+ channel): significantly increases peak L-type Ca^2+ channel current, cytosolic Ca^2+, and cell contraction | effect on calcium influx / cytosolic free calcium and cell contraction (cells): increases in calcium influx and the contracture of cells

CCCCC/C=C\C/C=C\C/C=C\C/C=C\CCCC(=O)O [arachidonic acid]
inotropic effect (heart): concentration-dependent negative inotropes
